“Also recorded” adds a separate entry of the source. Read-outs that look alike come from different tables or passages of the source.
Legend:
[1] = biological target: T1, alpha4beta2 receptor (cytisine binding, rat brain membranes) (Rattus norvegicus, UniProt P09483+P12390); experiment: biochemical; conditions: 1 μM (Table 2); read-out: alpha4beta2 binding: % inhibition of cytistine binding
T1 construct: from tissue; host or cells: rat brain membranes
Source text: Further, the cinnamylidene-anabaseines displaced high affinity cytisine binding to rat brain membranes with lower affinity than other types of benzylidene-anabaseines. These observations are consistent with the cinnamylidene-anabaseines having some selectivity for alpha7 receptor subtypes over other types of nicotinic receptors, especially alpha4beta2 receptors, based on the types of receptors to which alpha-bungarotoxin and cytisine bind to in brain.

PC12 cells [2] = type: cell-based
Experimental: PC12 cell-culture methods were modified from Greene and Tischler (1976). Cells were plated at 30-40% confluence and grown in Dulbecco's Modified Eagle Medium containing 10% heat-inactivated horse serum, 5% fetal bovine serum, 100 units/ml penicillin, 100 μg/ml streptomycin and 0.5 mM 1-glutamine. Cultures were maintained at 37° C., […] /6% CO2 and 90-92% humidity in culture plates pre-coated with poly-1lysine (10 g/L). Cultures were maintained for 7 days in serum-supplemented medium to which 100 ng/ml rat 2.5S NGF was added at day 1. On day 7, conditioned medium was replaced serum-free medium containing specified drugs. Four days later, cell density was estimated using the NIH Image program version 1.47 and number of neurite-expressing cells counted manually in blind fashion as described previously (Martin et al., 1994). A Nikon inverted microscope (100× magnification) was attached to a Mac II computer via a monochrome video camera (Cohu, Inc., San Diego, Calif.). Four random areas were counted per plate and there were 4 plates per treatment group, unless otherwise indicated. Neurites were defined as processes at least 2× the length of the perikaryon. To assess the reliability of the image analyses, a reticle was used for direct quantification of cells in the same view as the one analyzed in random samples.
PC12 cells were differentiated for 1 week with NGF. Drugs were administered for the 4 day interval after removal of serum and NGF. Neuites were counted and expressed as the mean±SEM of at least 3 plates/group.

[3] = tested on: nucleus basalis lesioned rats; experiment: Passive avoidance behavior in nucleus basalis lesioned rats; type: in vivo, rat; conditions: for passive avoidance behavior (in words): nucleus basalis lesioned rats
Experimental: Passive avoidance behavior was measured in nucleus basalis lesioned rats after intraperitoneal (IP) injections of drugs (base weight) or 0.9% saline diluent. For lesions, male 5 month old Sprague Dawley rats were anesthetized with 30 mg/kg sodium pentobarbital (IP) and then infused bilaterally with 1 μl of 5 μg/μl ibotenic acid in phosphate buffered saline, pH 7.4, into the nucleus basalis as described previously (17). Infusion coordinates were anterior 7.0 mm, lateral 2.6 mm and vertical 6.5 mm according to Paxinos and Watson (Paxinos and Watson, 1986).
Following surgery, animals were returned to their individual home cages and fed semi-solid mash made from Purina Rat Chow for several days. One month later, animals were trained in a two chamber passive avoidance paradigm. Fifteen min after IP drug injection, they were placed in the lit compartment, and allowed to enter the dark adjoining chamber. Animals that entered the second chamber received a mild foot shock (0.8 mA) for 1 sec. Rats were tested for latency 24 hr later for up to 5 min; this test also began 15 min after injection. Statistical analyses utilized rank order nonparametric comparisons of latencies.

fimbrial transections = conditions: Meyer et al., in press; cited from earlier work
[4] = tested on: animal models of learning and memory; conditions: animals; cited from earlier work
PC12 cells [5] = conditions: Martin et al., 1994, cited from earlier work
rat [6] = conditions: in vivo
Experimental: Eleven male Sprague-Dawley rats were first trained to press the left lever in a two lever operant conditioning chamber. They had limited access to food for 23 hours prior to the first training session and then received 20 grams of food for the remainder of the study. Once subjects reliably pressed the left lever, a catheter was surgically implanted into the right jugular vein. The catheter consisted of three separate pieces of tubing, a 37 mm length of silicon rubber tubing which entered the circulatory system (Silastic Medical Grade tubing), a 65 mm length of polyethylene tubing (Intramedic, PE10) and a 170 mm length of polyethylene tubing with the same internal diameter (Intramedic, PE20). The catheter exited between the scapulae and could be hooked up to a swivel which itself was connected to a pneumatic syringe. […] Once subjects had recovered from surgery they were trained to complete a fixed ratio 2 schedule (FR 2) to activate the pneumatic syringe. […] Each daily experimental session lasted 50 minutes. After several sessions under these conditions, subjects received an intraperitoneal (IP) injection of physiological saline (1 ml/kg), 15 min prior to the start of the self-administration session. The next day subjects were IP injected with 8 mg/kg of GTS-21, also 15 minutes before the beginning of the session.

NB Lesion = NB Lesion (Table 4); type: in vivo
[7] = tested on: rat primary neocortical neurons; type: cell-based
rat [8] = experiment: Focal ischemia infarct size in rats; type: in vivo
Experimental: FIG. 3. […] Rats received a 30 minute ischemia attack through tying of their common carotid; the amount of cell death (proportional to Infarct Size) was determined 24 hours later. Some animals received the benzylidene-anabaseine compound DMXB (1 mg/kg IP, salt weight) 1 hour before ligation, or the nicotinic antagonist mecamylamine (0.5 mg/kg IP), or both mecamylamine and DMXB, or DMXB 5 minutes after the ligation.
Male Sprague Dawley albino male rats (250-300 g) were anesthetized with a subcutaneous injection of ketamine, xylazine, and acepromazine (3:3:1 mixture, 0.7 cc/kg). Atropine (0.4 mg/kg IP) was injected several min prior to dissection of the carotid artery from the vagus. The internal carotid artery (ICA) was dissected until its proximal bifurcation into the terminal ICA and pterygopalatine arteries were clearly defined. The pterygopalatine artery was clipped parallel to and flush with the terminal ICA. Another clip was applied to the common carotid artery (CCA). The distal aspect of the external carotid artery (ECA) was coagulated and a straight aneurysm clip was applied 4 mm distal to the proximal ICA bifurcation. A suture was passed through the arteriotomized ECA stump into the ICA until the tip was resting against the aneurysm clip. The suture was removed 30 min later, with body temperature maintained between 36.5-37.5° C. The ECA stump was coagulated with bipolar electrocautery. Clips were removed and the wound was irrigated with saline prior to suturing.
Rats were euthanised 24 hours post-infarction and their brains removed and sectioned coronally (2 mm). Sections were placed into a 2% solution of 2,3,5-triphyenyl-tetrazolium cholide (Sigma Chemical Co., St. Louis. Mo.) for 20 minutes at 37° C. The sections were removed to a petri dish and covered with 10% formaldehyde solution. The outline function of the NIH Image computer program (version 1.47) was used to estimate the infarcted and total brain areas for each section. Infarct size was calculated as percent of total brain area.

rat alpha7 receptor = rat alpha7 receptor (Rattus norvegicus, UniProt Q05941); conditions: cited from earlier work
Chain of rat alpha7 receptor (Q05941 23-502): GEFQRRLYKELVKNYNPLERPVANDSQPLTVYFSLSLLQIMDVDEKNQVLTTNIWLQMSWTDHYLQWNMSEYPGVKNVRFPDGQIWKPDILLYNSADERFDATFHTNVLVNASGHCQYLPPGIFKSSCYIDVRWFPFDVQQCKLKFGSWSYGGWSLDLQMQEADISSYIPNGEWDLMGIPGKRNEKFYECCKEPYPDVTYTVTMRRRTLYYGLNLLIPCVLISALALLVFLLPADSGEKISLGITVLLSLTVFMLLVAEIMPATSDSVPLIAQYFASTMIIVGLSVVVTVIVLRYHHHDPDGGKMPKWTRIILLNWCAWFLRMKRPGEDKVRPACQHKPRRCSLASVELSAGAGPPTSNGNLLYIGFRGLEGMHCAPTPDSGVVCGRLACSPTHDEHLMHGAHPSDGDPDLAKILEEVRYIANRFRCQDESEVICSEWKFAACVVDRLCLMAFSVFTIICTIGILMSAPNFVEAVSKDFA

[9] = tested on: rat primary neocortical neurons; conditions: Shimohama et al., in press; cited from earlier work

T1 sequence (P09483 31-630): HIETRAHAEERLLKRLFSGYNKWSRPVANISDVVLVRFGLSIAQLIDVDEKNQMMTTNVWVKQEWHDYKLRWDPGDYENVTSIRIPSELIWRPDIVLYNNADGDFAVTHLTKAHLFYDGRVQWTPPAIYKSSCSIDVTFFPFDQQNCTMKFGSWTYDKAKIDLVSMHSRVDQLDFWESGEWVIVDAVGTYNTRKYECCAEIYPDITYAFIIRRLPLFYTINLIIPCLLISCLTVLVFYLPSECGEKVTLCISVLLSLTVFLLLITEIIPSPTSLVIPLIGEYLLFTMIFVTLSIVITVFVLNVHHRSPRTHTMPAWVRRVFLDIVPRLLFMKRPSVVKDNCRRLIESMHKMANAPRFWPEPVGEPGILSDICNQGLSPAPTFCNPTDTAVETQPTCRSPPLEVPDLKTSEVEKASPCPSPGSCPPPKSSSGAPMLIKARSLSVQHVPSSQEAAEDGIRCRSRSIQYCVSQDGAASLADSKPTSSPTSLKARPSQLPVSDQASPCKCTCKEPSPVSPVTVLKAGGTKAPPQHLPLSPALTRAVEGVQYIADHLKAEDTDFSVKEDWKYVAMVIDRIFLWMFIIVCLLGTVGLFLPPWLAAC
T1 sequence (P12390 25-500): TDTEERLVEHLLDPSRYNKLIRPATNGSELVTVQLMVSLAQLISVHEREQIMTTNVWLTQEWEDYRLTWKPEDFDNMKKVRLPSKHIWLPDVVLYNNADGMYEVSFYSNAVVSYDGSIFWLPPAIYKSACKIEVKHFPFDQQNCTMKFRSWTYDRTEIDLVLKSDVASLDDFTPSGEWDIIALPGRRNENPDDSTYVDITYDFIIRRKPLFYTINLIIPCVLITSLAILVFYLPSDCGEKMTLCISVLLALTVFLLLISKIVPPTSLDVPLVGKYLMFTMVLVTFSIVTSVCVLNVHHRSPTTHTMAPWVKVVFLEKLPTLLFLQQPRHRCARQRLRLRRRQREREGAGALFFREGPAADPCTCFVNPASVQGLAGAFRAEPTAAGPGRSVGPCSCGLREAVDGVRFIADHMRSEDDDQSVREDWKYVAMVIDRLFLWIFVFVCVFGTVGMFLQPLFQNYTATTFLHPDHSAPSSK

COc1ccccc1/C=C/C=C1\CCCN=C1c1cccnc1 [2-MeOCA, E,E-3-(2-Methoxycinnamylidene)anabaseine]
inhibition at 1 µM [1]: 29%
neurite protection during NGF-deprivation (in words) (PC12 cells [2]; 10 μM): Neither 2-MeOCA nor 4-MeOCA elicited neurite-protection
Neurite Counts (PC12 cells [2]; 10 μM (NGF 100 ng/ml), 4 days after removal of serum and NGF, mean±SEM, * p<0.05): 213 ± 26
effective dose-response range, upper end ([3]; IP): at least 3 mg/kg
passive avoidance behavior (in words) ([3]; IP): most potent
passive avoidance behavior (in words) ([3]; IP, listed as 2MeOCA): most potent performance-enhancing agent
passive avoidance behavior (in words) ([3]; IP, listed as trans-3(2-methoxy-cinnamylidene) anabaseine): less potent than the present compounds
passive avoidance behavior (in words) ([3]; IP, listed as trans-3-(2-methoxycinnamylidene) anabaseine): high potency
minimal effective dose ([3]; Rattus norvegicus, ip, read-out: effective dose-response range, lower end): < 0.1 mg/kg

COc1ccc(/C=C2\CCCN=C2c2cccnc2)c(OC)c1 [DMXB, 3-(2,4-Dimethoxybenzylidene) anabaseine]
activity against fimbrial transections in vivo (in words) (fimbrial transections): neuroprotective activity
memory-related performance (in words) [4]: enhances performance in several spatial and non-spatial memory-related paradigms in rats and rabbits
activity against trophic factor deprivation in PC12 cells (in words) (PC12 cells [5]; listed as GTS 21): sufficient to reduce this neurotoxicity
activity against trophic factor deprivation in PC12 cells (in words) (PC12 cells [5]; listed as GTS-21): neuroprotective activity
nicotine self-administration (in words) (rat [6]): inhibits nicotine self-administration; also recorded: less likely to self-administer nicotine
NB Lesion (NB Lesion): + (≥ 0.5)
protection against glutamate, concomitant (in words) ([7]; 10 μM, with 1 mM glutamate): not observed when administered concomitantly with glutamate
protection against NMDA receptor-mediated toxicity (in words) ([7]; 24 hr prior to glutamate or NMDA): protects rat primary neocortical neurons against NMDA-receptor mediated excitotoxicity; also recorded: protected against NMDA receptor-mediated toxicity
effect on kainate-induced neurotoxicity (in words) ([7]; kainate): no effect
protection against infarct / cell loss, given before ischemia (in words) (rat [8]; 1 mg/kg IP before ischemia): protected principally in the posterior infarct area; also recorded: protected against cell loss; also recorded: did not have as much cell loss
infarct size (mean value) (rat [8]; coronal section 5 mm posterior to frontal pole, saline 28%): 19%
protection against infarct, given during or after start of ischemia (in words) (rat [8]; during 30 min ischemic insult): ineffective
α7 agonist activity (in words) (rat alpha7 receptor; background/literature): weak partial agonist activity
selectivity α7 over α4β2 / other nicotinic subtypes (in words) (rat alpha7 receptor; literature): selective as an agonist for α7 versus other nicotinic receptor subtypes
activity of ACh at α7 receptors (rat alpha7 receptor; partial agonist): about 20%
activity against NMDA-receptor activation (in words) [9]: neuroprotective activity
